± gives the standard deviation of the averaged measurements.
Columns and labels:
[1] = compound: COc1ccc(-c2cc3c(C)nc(N)nc3n([C@H]3CC[C@H](OCCO)CC3)c2=O)cn1; test: surviving fraction relative to DMSO-only wells; higher = less growth inhibition; details: exposure time: 5 days
Procedure, shortened: (§1)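 Tumour cell lines were seeded in log phase at 250–500 cells per well into 384-well plates. Starting 24 hours later, inhibitors were present continuously for five days at 0.5, 1, 5, 10, 50, 100, 500 and 1000 nM. Surviving fraction, from CellTiter-Glo luminescence, is normalised to the median of DMSO-only wells. Three screens per line were required, with replicate Pearson r >0.7 and median Z' >0.3 for a line to be kept.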

[2] = compound: C[C@H](CN(C)C)Oc1nc(Nc2cc3cccc(Cl)c3cn2)cnc1C#N; test: as above; details: exposure time: 5 days
Procedure, shortened: as §1

Test System	surviving fraction ([1]; 0.5 nM)	surviving fraction ([1]; 1 nM)	surviving fraction ([1]; 5 nM)	surviving fraction ([1]; 10 nM)	surviving fraction ([1]; 50 nM)	surviving fraction ([1]; 100 nM)	surviving fraction ([1]; 500 nM)	surviving fraction ([1]; 1000 nM)	surviving fraction ([2]; 0.5 nM)	surviving fraction ([2]; 1 nM)	surviving fraction ([2]; 5 nM)	surviving fraction ([2]; 10 nM)	surviving fraction ([2]; 50 nM)	surviving fraction ([2]; 100 nM)	surviving fraction ([2]; 500 nM)	surviving fraction ([2]; 1000 nM)
SG27 HEADNECK	1.03 ± 0.11	1.02 ± 0.12	0.945 ± 0.042	0.935 ± 0.11	0.834 ± 0.21	0.703 ± 0.048	0.424 ± 0.0087	0.357 ± 0.039	1.14 ± 0.17	0.995 ± 0.085	1.11 ± 0.12	0.997 ± 0.04	1.1 ± 0.028	1.03 ± 0.065	1.16 ± 0.062	1.15 ± 0.097
SG28 HEADNECK	1.042 ± 0.0068	1.033 ± 0.0092	0.998 ± 0.1	0.899 ± 0.058	0.691 ± 0.036	0.621 ± 0.057	0.3 ± 0.0047	0.242 ± 0.005	1.02 ± 0.033	1.15 ± 0.033	0.996 ± 0.05	1.09 ± 0.19	1.04 ± 0.069	1.22 ± 0.31	1.11 ± 0.018	0.959 ± 0.18
SG31 HEADNECK	0.99 ± 0.13	0.942 ± 0.1	0.933 ± 0.08	0.766 ± 0.057	0.637 ± 0.036	0.463 ± 0.054	0.25 ± 0.014	0.162 ± 0.023	1.04 ± 0.091	1.08 ± 0.072	1.1 ± 0.28	1.07 ± 0.12	1.07 ± 0.16	1.07 ± 0.11	0.982 ± 0.14	0.967 ± 0.032
SG32 HEADNECK	1.08 ± 0.076	1.09 ± 0.38	1.02 ± 0.11	1.34 ± 0.31	1.04 ± 0.095	0.982 ± 0.14	0.432 ± 0.086	0.263 ± 0.044	1.17 ± 0.16	1.16 ± 0.24	1.06 ± 0.078	1.03 ± 0.1	1.05 ± 0.081	1.16 ± 0.23	0.748 ± 0.066	0.653 ± 0.11
SG43 HEADNECK	0.954 ± 0.097	1 ± 0.041	0.747 ± 0.054	0.613 ± 0.06	0.506 ± 0.046	0.427 ± 0.032	0.266 ± 0.02	0.168 ± 0.007	0.863 ± 0.068	0.929 ± 0.058	0.961 ± 0.13	0.933 ± 0.091	0.729 ± 0.078	0.585 ± 0.08	0.692 ± 0.082	0.91 ± 0.18
SIHA CERVIX	1.01 ± 0.032	1.02 ± 0.07	0.974 ± 0.062	0.93 ± 0.063	0.656 ± 0.025	0.536 ± 0.024	0.232 ± 0.0035	0.161 ± 0.011	0.955 ± 0.041	0.981 ± 0.033	1.06 ± 0.037	1.05 ± 0.061	1.16 ± 0.014	1.11 ± 0.1	0.95 ± 0.092	1 ± 0.033
SJSA1 BONE	1.04 ± 0.035	0.976 ± 0.023	0.989 ± 0.058	0.941 ± 0.027	0.743 ± 0.059	0.671 ± 0.028	0.2 ± 0.011	0.116 ± 0.0015	1.49 ± 0.044	1.65 ± 0.083	1.6 ± 0.17	1.57 ± 0.02	1.63 ± 0.14	1.74 ± 0.039	1.63 ± 0.2	1.69 ± 0.082
SKBR3 BREAST	0.863 ± 0.093	0.88 ± 0.073	0.833 ± 0.23	0.763 ± 0.15	0.434 ± 0.073	0.204 ± 0.043	0.058 ± 0.0053	0.0507 ± 0.0047	1.04 ± 0.066	0.967 ± 0.066	0.881 ± 0.058	0.843 ± 0.063	1.06 ± 0.061	0.91 ± 0.18	0.667 ± 0.08	0.344 ± 0.019
SNU475 LIVER	0.94 ± 0.013	0.951 ± 0.022	0.891 ± 0.041	0.865 ± 0.012	0.625 ± 0.014	0.404 ± 0.036	0.127 ± 0.0076	0.0823 ± 0.0011	0.989 ± 0.036	1.03 ± 0.019	1 ± 0.039	1.037 ± 0.005	1.02 ± 0.044	0.972 ± 0.04	0.968 ± 0.024	0.918 ± 0.024
SUM44 BREAST	0.914 ± 0.026	0.974 ± 0.044	1.01 ± 0.027	0.957 ± 0.04	0.864 ± 0.043	0.747 ± 0.017	0.225 ± 0.028	0.151 ± 0.0051	1.14 ± 0.37	1.16 ± 0.3	1.24 ± 0.33	1.29 ± 0.47	1.23 ± 0.4	0.918 ± 0.25	0.284 ± 0.056	0.268 ± 0.066
SUM149 BREAST	1.02 ± 0.042	1.1 ± 0.1	0.963 ± 0.067	0.9127 ± 0.0085	0.697 ± 0.036	0.474 ± 0.03	0.161 ± 0.0021	0.0763 ± 0.0038	1.04 ± 0.091	1.02 ± 0.083	0.988 ± 0.086	1.07 ± 0.017	0.903 ± 0.07	0.836 ± 0.024	0.192 ± 0.0025	0.0843 ± 0.011
SUM149.B1*.S BREAST	0.985 ± 0.03	1.02 ± 0.059	1.02 ± 0.032	0.995 ± 0.037	0.924 ± 0.011	0.823 ± 0.03	0.475 ± 0.014	0.339 ± 0.017	1.06 ± 0.066	1.06 ± 0.023	1.03 ± 0.055	1.09 ± 0.029	1.11 ± 0.029	1.05 ± 0.029	0.941 ± 0.026	0.492 ± 0.024
SUM159 BREAST	1.1 ± 0.16	1.12 ± 0.18	1.1 ± 0.17	1.1 ± 0.17	1.05 ± 0.074	0.839 ± 0.036	0.181 ± 0.014	0.119 ± 0.006	1.04 ± 0.038	1.06 ± 0.034	1.05 ± 0.03	1.05 ± 0.033	1.06 ± 0.024	1.05 ± 0.024	1.03 ± 0.02	0.986 ± 0.0078
SYO1 SYNOVIAL	0.961 ± 0.013	0.912 ± 0.021	0.895 ± 0.061	0.825 ± 0.041	0.557 ± 0.0083	0.386 ± 0.035	0.118 ± 0.028	0.0698 ± 0.019	0.955 ± 0.038	0.963 ± 0.015	0.969 ± 0.017	0.941 ± 0.023	0.97 ± 0.026	0.835 ± 0.015	0.34 ± 0.0094	0.197 ± 0.014
T47D BREAST	0.993 ± 0.043	0.975 ± 0.021	0.959 ± 0.02	0.913 ± 0.013	0.638 ± 0.018	0.414 ± 0.022	0.196 ± 0.0079	0.148 ± 0.0018	1.02 ± 0.043	1.06 ± 0.044	1.04 ± 0.027	1.03 ± 0.032	1.1 ± 0.046	1.14 ± 0.029	0.919 ± 0.063	0.766 ± 0.024
U2OS BONE	0.98 ± 0.036	1.02 ± 0.019	0.9927 ± 0.0096	0.92 ± 0.05	0.794 ± 0.044	0.693 ± 0.029	0.277 ± 0.0042	0.202 ± 0.0051	1.04 ± 0.053	1 ± 0.039	1.02 ± 0.027	0.993 ± 0.081	1.05 ± 0.043	1.03 ± 0.025	0.277 ± 0.028	0.159 ± 0.013
VCAP PROSTATE	1.01 ± 0.05	1.08 ± 0.04	1.06 ± 0.14	0.983 ± 0.056	0.706 ± 0.027	0.52 ± 0.023	0.161 ± 0.013	0.0997 ± 0.016	0.969 ± 0.098	1.03 ± 0.14	1.1 ± 0.11	1.08 ± 0.11	1.12 ± 0.033	1.01 ± 0.16	0.715 ± 0.12	0.35 ± 0.039
VP229 BREAST	1.13 ± 0.11	1.07 ± 0.062	0.948 ± 0.046	0.844 ± 0.032	0.513 ± 0.078	0.383 ± 0.071	0.135 ± 0.02	0.0757 ± 0.018	0.984 ± 0.1	1.02 ± 0.056	1.1 ± 0.12	1.04 ± 0.14	1.05 ± 0.096	1.09 ± 0.042	1.04 ± 0.086	0.86 ± 0.028
YAMATO SYNOVIAL	1.15 ± 0.087	1.09 ± 0.066	1.01 ± 0.073	0.952 ± 0.057	0.469 ± 0.062	0.355 ± 0.0076	0.189 ± 0.014	0.272 ± 0.012	1.12 ± 0.038	1.24 ± 0.086	1.17 ± 0.05	1.2 ± 0.13	1.18 ± 0.067	1.18 ± 0.037	0.806 ± 0.052	0.622 ± 0.074
ZR751 BREAST	1.13 ± 0.17	1.04 ± 0.15	0.783 ± 0.13	0.708 ± 0.11	0.328 ± 0.039	0.182 ± 0.038	0.091 ± 0.013	0.0693 ± 0.012	1.07 ± 0.13	1.07 ± 0.085	1.08 ± 0.17	0.991 ± 0.078	0.867 ± 0.13	0.909 ± 0.15	0.543 ± 0.082	0.587 ± 0.042

Source: the supplement of paper PMC6045584
